Experimental data taken from patent US7871793B2, “Antimicrobial carbohydrates and methods of using same” (Burnham Institute for Medical Research, priority 2004, dated 2011).

Tests used:
H. pylori infection = conditions: patients; cited from earlier work
H. pylori (ATCC43504) = experiment: Cultivation of H. pylori in the presence or absence of cholesterol; assay type: cell-based, Helicobacter pylori; conditions: Ham's F-12 with 0.005% cholesterol, 5 days
[1] = tested on: Helicobacter pylori (ATCC43504); experiment: Cell growth assay of H. pylori (microbroth dilution, OD 600 nm); assay type: cell-based; conditions: ATCC43504, Brucella broth, 96-well plate, 35° C., 15% CO2, 4 days, OD600
[2] = tested on: UDP-Glc:sterol glucosyltransferase; experiment: In vitro synthesis of CGL from UDP-Glc and cholesterol by sonicated H. pylori; assay type: biochemical, Helicobacter pylori; conditions: 5.0 mU in 100 μl reaction (50.0 mU/ml), 30° C., 3 hours
H. pylori = experiment: Cell motility assay (time-lapse confocal images); assay type: cell-based, Helicobacter pylori; conditions: 31.2 mU/ml or same protein concentration, 3 days, mean±SD

CC1(C)S[C@@H]2[C@H](NC(=O)[C@H](N)c3ccc(O)cc3)C(=O)N2[C@H]1C(=O)O [amoxicillin]
eradication rate (H. pylori infection): less than 20%

CC(C)CCC[C@@H](C)[C@H]1CC[C@H]2[C@@H]3CC=C4C[C@@H](O)CC[C@]4(C)[C@H]3CC[C@]12C [cholesterol]
morphology (H. pylori (ATCC43504)): normal | motility (H. pylori (ATCC43504)): good | CFU/ml (H. pylori (ATCC43504); 35° C.): 1 × 10^8 CFU/ml

CC[C@H]1OC(=O)[C@H](C)[C@@H](O[C@H]2C[C@@](C)(OC)[C@@H](O)[C@H](C)O2)[C@H](C)[C@@H](O[C@@H]2O[C@H](C)C[C@H](N(C)C)[C@H]2O)[C@](C)(OC)C[C@@H](C)C(=O)[C@H](C)[C@@H](O)[C@]1(C)O [clarithromycin]
eradication rate (H. pylori infection): about 40%

Cc1ncc([N+](=O)[O-])n1CCO [metronidazole]
eradication rate (H. pylori infection): less than 10%

B1: CD43 free of a GlcNAcα residue: control soluble CD43 produced without α4GnT cDNA; side chain Galβ1→4GlcNAcβ1→6(Galβ1→3)GalNAcα→Ser/Thr (protein, UniProt P16150 20-253, looked up)
extracellular domain: STTAVQTPTSGEPLVSTSEPLSSKMYTTSITSDPKADSTGDQTSALPPSTSINEGSPLWTSIGASTGSPLPEPTTYQEVSIKMSSVPQETPHATSHPAVPITANSLGSHTVTGGTITTNSPETSSRTSGAPVTTAASSLETSRGTSGPPLTMATVSLETSKGTSGPPVTMATDSLETSTGTTGPPVTMTTGSLEPSSGASGPQVSSVKLSTMMSPTTSTNASTVPFRNPDENSR
modifications: extracellular domain core2 O-glycans lacking terminal GlcNAc
notes: control soluble CD43 produced without α4GnT cDNA; side chain Galβ1→4GlcNAcβ1→6(Galβ1→3)GalNAcα→Ser/Thr
growth of H. pylori [1]: drastic growth | peak of CGL at m/z 571.6 in products of sonicated H. pylori [2]: a peak of CGL was detected | mean velocity of seven H. pylori (H. pylori): 21.1±2.6 μm/sec | mean velocity of seven H. pylori (H. pylori; listed as αGlcNAc (−)): 21.2±2.6 μm/sec
